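Each compound was tested at five concentrations against cells in 96-well plates for 48 hours. GI50: concentration for 50% inhibition of growth. Definition used: TGI = concentration required for complete inhibition of growth.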 Where a SMILES comes first, the peptide text is derived from it. [ ]: non-standard residue; d: D form. Phe(4-Cl) = N[CH](Cc1ccc(Cl)cc1)C(=O)O
Experiments:
Assay in all cases: NCI tumour cell line growth inhibition, 48 h
UACC-62 melanoma = tested on: UACC-62 melanoma
SK-MEL-5 melanoma = tested on: SK-MEL-5 melanoma
K-562 leukemia = tested on: K-562 leukemia
OVCAR-3 ovarian = tested on: OVCAR-3 ovarian
OVCAR-4 ovarian = tested on: OVCAR-4 ovarian
CAKI-1 renal = tested on: CAKI-1 renal
HOP-62 NSCLC = tested on: HOP-62 NSCLC
NCI-H23 lung = tested on: NCI-H23 lung
SR leukemia = tested on: SR leukemia
CCRF-CEM leukemia = tested on: CCRF-CEM leukemia

SMILES	GI50 (UACC-62 melanoma) [µM]	TGI (UACC-62 melanoma) [µM]	GI50 (SK-MEL-5 melanoma) [µM]	TGI (SK-MEL-5 melanoma) [µM]	GI50 (K-562 leukemia) [µM]	TGI (K-562 leukemia) [µM]	GI50 (OVCAR-3 ovarian) [µM]	TGI (OVCAR-3 ovarian) [µM]	GI50 (OVCAR-4 ovarian) [µM]	TGI (OVCAR-4 ovarian) [µM]	GI50 (CAKI-1 renal) [µM]	TGI (CAKI-1 renal) [µM]	GI50 (HOP-62 NSCLC) [µM]	TGI (HOP-62 NSCLC) [µM]	GI50 (NCI-H23 lung) [µM]	TGI (NCI-H23 lung) [µM]	GI50 (SR leukemia) [µM]	TGI (SR leukemia) [µM]	GI50 (CCRF-CEM leukemia) [µM]	TGI (CCRF-CEM leukemia) [µM]
CCC[CH2][Sn]1([CH2]CCC)[O]C(=O)C(C(C)C)N=Cc2ccccc2[O]1 (stereo not drawn)	0.244	0.693	1.07	> 100	0.171	1.04	0.73	1.99	0.836	2.07	0.136	0.47	3.79	> 100	0.158	0.534	–	–	–	–
Cc1cc(C)c(C(=O)CC(=O)c2cccnc2)c(C)c1	4.52	41.8	7.56	> 100	3.71	> 100	5.78	77.4	8.59	> 100	1.34	5.52	6.32	> 100	11.1	> 100	2.81	33.2	4.1	45.8
Cc1ccc(C(=NN=C(N)N)c2ccc(C)cc2)cc1	0.902	6.04	0.427	1.5	0.271	1.55	0.24	0.568	1.7	13.8	0.608	5.93	1.21	12.5	0.98	8.66	0.235	1.69	0.559	12.2
CCOC(=O)c1cc(/C(=N\O)c2cc(OC)c(OC)c(OC)c2)n2cc(C)cc(C)c12	–	–	2.19	5.79	–	–	1.74	4.33	1.95	5.1	2.36	> 100	1.73	5.45	2.81	> 100	0.56	4.57	–	–
O=C(O)CP(=S)(S)c1ccccc1 (stereo not drawn)	–	> 100	–	> 100	–	> 100	–	–	–	> 100	–	> 100	–	> 100	–	> 100	–	> 100	–	> 100
COc1ccc(C(=O)c2cc(C)c(OC)c(C)c2)c(OC)c1N(C(=O)C(Cl)Cl)C(=O)C(Cl)Cl	0.0605	> 100	0.0509	2.14	0.0487	> 100	0.0357	–	1.59	> 100	0.0415	> 100	0.0666	> 100	0.0909	> 100	–	–	0.0626	> 100
CN(C)CC/C(=N\Nc1c(Cl)cccc1Cl)c1ccccc1	–	29.9	–	29.5	–	52.3	–	65.9	–	47.4	–	–	–	> 100	–	33.4	–	63.4	–	79.3
CC(=O)[CH-]C(=O)c1ccccc1.CC(=O)[CH-]C(=O)c1ccccc1.O=C([O-])c1ccc([O-])cc1.O=C([O-])c1ccc([O-])cc1.[Ti+4]	37.2	> 100	43.9	> 100	33.5	> 100	33.4	> 100	57.1	> 100	35.6	> 100	35.1	> 100	66.2	> 100	–	–	15.4	62.8
Cc1ccc2nc3c(C(=O)NCCN(C)C)cccc3nc2c1	–	16.8	–	> 39.8	–	9.27	–	32.4	–	15.2	–	> 31.6	–	14	–	17.1	–	> 100	–	–
CC[O-].CC[O-].O=C1c2ccccc2C(=O)c2c(O)ccc([O-])c21.O=C1c2ccccc2C(=O)c2c(O)ccc([O-])c21.[Ti+4]	–	> 100	–	> 100	–	> 100	–	> 100	–	> 100	–	> 100	–	> 100	–	> 100	–	–	–	> 100
Cc1cc(C)nc(NS(=O)(=O)c2ccc(Nc3c4ccccc4nc4c(C(=O)Nc5ccc(S(=O)(=O)Nc6cc(C)on6)cc5)cccc34)cc2)n1	–	34	–	36.3	–	80.1	–	33.3	–	65.5	–	46.3	–	44.2	–	51.1	–	81.6	–	–
COc1ccc(C(=O)COc2cccc(/C=C3\COc4ccc5ccccc5c4C3=O)c2)cc1	16.3	> 100	5.58	> 100	3.63	66.7	3.12	11.5	6.53	> 100	8.24	78.3	29.7	> 100	5.17	> 100	–	–	1.92	6.26
NC(=S)N/N=C/c1ccc(OC(=O)COc2ccc(Cl)cc2)cn1	4.17	60	3.24	23.6	1.36	> 100	–	–	5.87	> 100	4.3	97.4	14.6	91.1	3.67	> 100	0.498	> 100	2.73	> 100
O=C(O)CN(c1ccccc1)S(=O)(=O)c1ccccc1[N+](=O)[O-]	–	> 100	–	> 100	–	–	–	> 100	–	> 100	–	> 100	–	–	–	> 100	–	–	–	> 100
O=C1NC(=O)c2ccc([N+](=O)[O-])c3cccc1c23	–	27	–	34.6	–	32.7	–	–	–	35.5	–	39	–	49.2	–	33.7	–	–	–	–
N#Cc1nc(C2OC(COC(=O)c3ccccc3)C(OC(=O)c3ccccc3)C2OC(=O)c2ccccc2)oc1N (stereo not drawn)	–	> 100	–	40	–	> 100	–	> 100	–	> 100	–	> 100	–	> 100	–	> 100	–	–	–	34.6
NC(N)=NCCCn1c2c(c3ccccc3c1=O)C(=O)c1ccccc1-2	10.9	25.7	15.1	29.5	11.6	29.5	18.3	45.4	55.6	> 100	20.3	49	0.695	3.64	–	–	–	–	19.9	> 100
Cc1ccccc1N(CCC#N)C1=NN(C(=O)CC(=O)Nc2ccccc2)C(c2ccccc2)C1 (stereo not drawn)	–	> 100	–	> 100	–	> 100	–	> 100	–	> 100	–	–	–	> 100	–	> 100	–	> 100	–	> 100

SMILES	GI50 (UACC-62 melanoma) [µM]	TGI (UACC-62 melanoma) [µM]	GI50 (SK-MEL-5 melanoma) [µM]	TGI (SK-MEL-5 melanoma) [µM]	GI50 (K-562 leukemia) [µM]	TGI (K-562 leukemia) [µM]	GI50 (OVCAR-3 ovarian) [µM]	TGI (OVCAR-3 ovarian) [µM]	GI50 (OVCAR-4 ovarian) [µM]	TGI (OVCAR-4 ovarian) [µM]	GI50 (CAKI-1 renal) [µM]	TGI (CAKI-1 renal) [µM]	GI50 (HOP-62 NSCLC) [µM]	TGI (HOP-62 NSCLC) [µM]	GI50 (NCI-H23 lung) [µM]	TGI (NCI-H23 lung) [µM]	GI50 (SR leukemia) [µM]	TGI (SR leukemia) [µM]	GI50 (CCRF-CEM leukemia) [µM]	TGI (CCRF-CEM leukemia) [µM]
CC(C)(C)OC(=O)Cc1ccc2c(ccn2Cc2ccccc2)c1	–	> 100	–	> 100	–	> 100	–	> 100	–	> 100	–	> 100	–	> 100	–	> 100	–	–	–	> 100
Cc1cc(SCC(=O)c2ccccc2)nc2ccccc12	–	> 100	–	> 100	–	> 100	–	> 100	–	> 100	–	> 100	–	> 100	–	> 100	–	> 100	–	–
C=CCCCCCCCCC(=O)NS(=O)(=O)c1ccccc1	–	> 100	–	–	–	> 100	–	> 100	–	> 100	–	> 100	–	> 100	–	> 100	–	–	–	–
CC(C)=CCC/C(=C/CC/C(C)=C/CCc1ccoc1)C(=O)O	–	> 100	–	> 100	–	> 100	–	> 100	–	> 100	–	–	–	> 100	–	> 100	–	–	–	> 100
Cc1ccc(N(C(=O)CC(=O)NN)C(=O)c2ccccc2Cl)cc1	–	> 100	–	–	–	> 100	–	> 100	–	> 100	–	> 100	–	> 100	–	> 100	–	–	–	> 100
Fc1cc(F)c(COc2cc(Cn3cnc4c(Cl)nc(Cl)nc43)ccc2C23CC4CC(CC(C4)C2)C3)cc1F	12.5	25.2	1.68	3.53	–	–	15.6	30.2	19.5	44	10.4	22.8	17.4	31.2	–	–	–	–	1.91	4.52
CN(C)c1ccc(N)cc1	4	16.8	3.91	13.7	–	–	2.14	6.12	1.74	3.45	5.6	30.9	–	–	3.14	14.1	–	–	–	–
COc1cc(NC(=O)c2cc(O)c(CC=C(C)C)c(O)c2)cc2c1O[C@]1(C)CC[C@@H](O)C(C)(C)[C@H]1C2	2.41	8.27	1.51	3.61	3.58	34.1	5.93	83.5	7.52	> 100	3.17	> 100	5.2	30.9	3.99	25.7	–	–	2.21	> 100
CN(C)CCCn1c2c(c3ccccc3c1=O)C(=O)c1ccccc1-2	0.516	1.96	–	–	1.9	8.01	1.67	6.79	3.15	48.9	0.583	2.44	1.74	6.61	1.75	8.39	–	–	1.44	28.9
c1ccc(C2=NNC3c4ccccc4-c4ccccc4N3C2)cc1 (stereo not drawn)	–	35.2	–	29.4	–	82	–	> 100	–	> 100	–	> 100	–	> 100	–	67.8	–	56.8	–	–
O=c1cccccc1NCCCNc1cccccc1=O	–	> 100	–	–	–	> 100	–	> 100	–	–	–	> 100	–	> 100	–	> 100	–	> 100	–	> 100
COC(=O)C1=NC(=S)NC(c2ccccc2)C1c1nc2ccccc2s1 (stereo not drawn)	–	> 100	–	> 100	–	–	–	> 100	–	> 100	–	> 100	–	> 100	–	> 100	–	> 100	–	> 100
CC1=C(C)CC2(CCCCC2=O)S(=O)C1 (stereo not drawn)	–	> 100	–	> 100	–	> 100	–	> 100	–	> 100	–	–	–	> 100	–	> 100	–	> 100	–	> 100
CC(O)C(NC(=O)C(Cc1ccccc1)NC(=O)C(NC(=O)C(CCCCN)NC(=O)C(Cc1c[nH]c2ccccc12)NC(=O)C(Cc1ccc(O)cc1)NC(=O)C(Cc1ccc(Cl)cc1)NC(=O)C(N)Cc1ccccc1)C(C)O)C(N)=O (stereo not drawn) (H-F[Phe(4-Cl)]YWKTFT-NH2; configuration not given here)	–	39.8	–	–	–	28.9	–	36.2	–	58.7	–	39.5	–	38.5	–	41.2	–	–	–	29.3
O=C1c2ccccc2-c2c1c1ccccc1c(=O)n2Cc1ccccc1	–	> 100	–	> 100	–	–	–	> 100	–	42.3	–	> 100	–	> 100	–	> 100	–	> 100	–	> 100
CN(C)CCNC(=O)c1cccc(C(=O)Nc2ccccc2)c1[N+](=O)[O-]	–	> 100	–	> 100	–	> 100	–	> 100	–	–	–	> 100	–	> 100	–	> 100	–	> 100	–	> 100
Cc1ccc(Nc2nc3c(s2)C(=O)c2ccccc2C3=O)c(C)c1	–	29.5	–	28.2	–	43	–	27.5	–	25	–	29	–	30.5	–	25.6	–	–	–	25.8
NCCCC[C@@H]1NC(=O)[C@H]2CCCN2C(=O)[C@H](Cc2ccccc2)NC(=O)[C@H](Cc2ccccc2)CNC1=O	> 100	> 100	> 100	> 100	> 100	> 100	> 100	> 100	> 100	> 100	> 100	> 100	> 100	> 100	> 100	> 100	–	–	> 100	> 100
